Laboratory results: paper PMC11091220, “Metabolism-driven in vitro/in vivo disconnect of an oral ERɑ VHL-PROTAC” (Communications Biology, 2024)
Several values for one entry are separate records, joined by “and”; a condition that tells them apart may be missing. Identical values can stand only once.

What was measured:
PR expression = experiment: ER agonism: PR expression in Ishikawa cells by western blot; format: cell-based
Experimental: Fig. 8 Evidence of ER agonism of AZ’6421 and compound 8 in vitro and in vivo. a 100 nM compound or 10 nM estradiol (E2) were incubated with Ishikawa cells for 48 h and lysates measured for PR expression by western blot. b Normalised rat uterine weight shown as % change from respective vehicle control after 4 days dosing. c Representative H&E stained images taken from sections of uterine horn after 4 days of dosing. d Total plasma exposure of AZ’6421 and its metabolite 8 following dosing of 100 mg/kg BID or 30 mg/kg BID AZ’6421. Plasma samples were taken 4 hr after the 4th dose, at the same time as the uterus was weighed and sectioned for H&E staining.
(§1) Cells were seeded into 12-well tissue culture-treated plates at 0.5 x 10^6 cells/well in phenol red-free RPMI containing 5% (v/v) charcoal-stripped FBS (F6765, Sigma) and left to adhere overnight. In experiments to detect agonism or for SILAC experiments, FBS was double stripped using activated charcoal. Cells were treated with compound or 0.1% DMSO vehicle control for the times indicated prior to being lysed in Pierce RIPA buffer (Thermo Scientific), supplemented with protease and phosphatase inhibitors. Expression levels of proteins were determined by standard western blotting techniques (BioRad 4%-12% Bis-Tris gels). Antibodies were diluted in 5% milk-PBS-Tween and protein levels were detected using Pierce WestDura chemiluminescent reagents followed by visualisation and quantification on a Syngene ChemiGenius Imager. Where blots were quantified, protein levels were normalised to beta-actin or vinculin control and expressed as % of vehicle control.

uterus = experiment: Immature female rat model, uterine weight and histology; format: in vivo
Excerpt: Some endocrine therapies, such as tamoxifen, have been reported to display weak agonistic activity in the endometrium due to altered cofactor recruitment and subsequent activation of gene transcription. We therefore sought to test whether AZ’6421 was a complete antagonist or could act as a partial agonist, in both in vitro and in vivo models. […] Plasma samples were taken 4 hr after the 4th dose, at the same time as the uterus was weighed and sectioned for H&E staining. To further explore whether AZ’6421 may be acting as an agonist in vivo, morphological changes of the uterine were examined: uterine horns were formalin-fixed paraffin-embedded, stained with haematoxylin and eosin and then transverse sections of uterus examined.

ERα [1] = target: T1, ERα (Homo sapiens, UniProt P03372); experiment: Western blot analysis of ERα in MCF7 cells (dose response, MG132, VHL ligand and cpd 8 competition); format: cell-based; conditions: MCF7
T1 construct: endogenous in cells; host or cells: MCF7 (also MCF7 engineered to express Cas9)
T1 sequence (P03372 1-595): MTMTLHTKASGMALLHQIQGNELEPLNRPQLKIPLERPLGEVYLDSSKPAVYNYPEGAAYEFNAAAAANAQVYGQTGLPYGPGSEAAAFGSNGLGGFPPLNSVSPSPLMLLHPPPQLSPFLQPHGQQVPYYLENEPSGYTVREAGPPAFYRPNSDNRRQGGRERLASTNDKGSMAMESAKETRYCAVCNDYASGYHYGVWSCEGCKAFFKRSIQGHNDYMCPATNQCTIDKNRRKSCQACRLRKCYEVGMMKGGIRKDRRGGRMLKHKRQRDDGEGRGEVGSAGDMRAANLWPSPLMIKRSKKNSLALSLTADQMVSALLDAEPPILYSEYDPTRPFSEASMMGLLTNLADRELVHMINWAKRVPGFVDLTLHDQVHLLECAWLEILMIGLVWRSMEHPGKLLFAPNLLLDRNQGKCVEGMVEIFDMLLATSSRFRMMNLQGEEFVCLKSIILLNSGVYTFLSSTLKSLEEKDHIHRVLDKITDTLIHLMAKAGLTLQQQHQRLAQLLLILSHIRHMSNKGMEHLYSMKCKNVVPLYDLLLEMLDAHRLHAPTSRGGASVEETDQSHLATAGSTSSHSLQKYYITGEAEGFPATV
Experimental: Fig. 2 AZ’6421 degrades ERα through a PROTAC mechanism of action. a Immunoblots for ERα and vinculin loading control. MCF7 cells were pre-treated with 10 µM MG132 or DMSO control for 1 h before being exposed to DMSO, AZ’6421, or fulvestrant, at the concentrations indicated, for a further 7 h. A representative immunoblot from two biological replicates is shown. b As in a but cells were pre-treated with 10 µM VHL ligand (Ac-(S,R,S)-AHPC) prior to addition of DMSO, AZ’6421 or fulvestrant. c MCF7 cells expressing BFP-Cas9 were reverse transfected with the crRNA:tracrRNA pool targeting VHL for 72 h prior to treatment with increasing concentrations of AZ’6421 for a further 24 h. Cells were then fixed, stained, and imaged to assess ERα and Cas9 expression. ERα levels in Cas9 positive cells were normalised to unedited cells (0) and ESR1 KO cells (-100). Data points are from three independent experiments, points in bold represent the mean. d Structure of AZ’6421 and the (S)-prolinol epimer, 7. e Concentration-response curves for AZ’6421 and 7. ERα levels in MCF7 cells were assessed using an immunofluorescence endpoint after 24 h exposure to compound. […] Data points are from 5 (AZ'6421) or 2 (Cpd 7) independent experiments with technical duplicates performed for each experiment, bold points represent the mean. All concentration-response curves were plotted using nonlinear regression analysis in GraphPad Prism.
Fig. 6 Assessment of the cause of the in vitro/in vivo disconnect. a CTC174 tumours were disaggregated into single cells, seeded in 6-well plates and dosed with increasing concentrations of AZ’6421 for 24 hours before being lysed. ERα levels were assessed by immunoblotting. ERɑ levels normalised to vinculin and expressed as % DMSO control are shown underneath the immunoblot. b Representative IHC images taken from sections of tumour treated with vehicle control or 100 mg/kg AZ’6421 for 4 days. Sections were stained with an antibody against ERα (Sp1, Ventana). c Schematic of potential sites of metabolism d Free plasma exposure of AZ’6421 and its metabolite 8 following 100 mg/kg dosing of AZ’6421. e Concentration-response curves for AZ’6421 and metabolite 8. ERα levels in MCF7 cells were assessed using an immunofluorescence endpoint after 24 h exposure to compound. […] Points in bold represent the mean. f Effect of metabolite 8 on ERα degradation in CTC174 cells cultured ex vivo. […] MCF7 cells were pre-treated with 10 µM cpd 8 or DMSO control for 1 h before being exposed to DMSO, AZ’6421 or fulvestrant, at the concentrations indicated, for a further 24 h. A representative immunoblot from two biological replicates is shown. TEXT PRINTED IN THE PICTURE: (a) AZ'6421: ERα % of DMSO control: 20.3 (1 nM); ERα % of DMSO control: 12.0 (10 nM); ERα % of DMSO control: 4.1 (30 nM); ERα % of DMSO control: 4.2 (100 nM); ERα % of DMSO control: 3.9 (300 nM); ERα % of DMSO control: 3.6 (1000 nM)
as §1

ERα [2] = target: T1, ERα; experiment: SILAC pulse-chase and mass spectrometry, ERα turnover in MCF7 cells; format: cell-based; conditions: 1 µM
Experimental: MCF7 cells were grown for a minimum of 2 passages in SILAC media (Pierce, Thermo Scientific) containing ^13C6^15N4 arginine and ^13C6 lysine. The extent of stable isotope incorporation was determined by mass spectrometry. For the assay, cells were plated at 1.2 x 10^6 cells/well into 6-well TC-treated plates in media containing 5% double charcoal stripped FBS^13,C6^15N4 arginine and ^13C6^15N2 lysine for 24 hours. At time 0, the media containing isotopically heavy arginine and lysine was replaced with media containing unlabelled equivalents plus either AZ’6421, fulvestrant or DMSO control. […] Equal concentrations of timecourse lysates were mixed with an internal standard lysate derived from ^[…] lysine labelled MCF7 cells. ER protein was immunoprecipitated overnight at 4 °C with an ER antibody (Rabbit clone SP1, Thermo Scientific) and immobilised onto a U-bottomed Nunc MaxiSorp plate (Thermo Scientific). Wells were sequentially washed with each of the following; RIPA buffer, PBS and water. Samples were digested by addition of 30 μL well sequencing grade trypsin (Promega) in 50 mM ammonium bicarbonate at 37 °C for a minimum of 16 hours. The resultant peptide samples were acidified and analysed by selected reaction monitoring (SRM) mass spectrometry. Protein half-life was determined using the one-phase exponential decay function in GraphPad PRISM where Y = (Y0 - Plateau)*exp(-K*X) + Plateau.

ERα [3] = target: T1, ERα; experiment: Hypoxia studies, ERα degradation in MCF7 cells; format: cell-based; conditions: 100 nM
Experimental: MCF7 cells were seeded into 12-well tissue culture-treated plates at 0.5x10^6 cells/well in phenol red-free RPMI media containing 5% (volume/volume [v/v]) charcoal-stripped FBS (F6765, Sigma) and left to adhere overnight. The hypoxia-treated plates were transferred to a Thermo Heracell 150 Tri-gas Incubator set at 2% O2 and allowed to equilibrate to the lower oxygen level overnight. Cells were treated with compound or 0.1% DMSO vehicle control for 48 hours prior to being lysed in Pierce RIPA buffer (Thermo Scientific), supplemented with protease and phosphatase inhibitors. Lysis was carried out immediately after removal from the Tri-gas incubator to prevent the rapid degradation of HIF1α on re-exposure to the higher oxygen levels. Protein expression was determined by standard western blotting procedures as described above.

Row | Structure (SMILES) | PR expression (% vs 10 nM E2) (PR expression; 100 nM compound, individual replicates) | PR expression in the Ishikawa endometrial cell line (PR expression; 100 nM, 48 h) | Uterine weight normalised to body weight (% vehicle) (uterus; 5 mg/kg, individual animals) | uterine epithelium morphology (H&E) (uterus; immature female rat, 4 days dosing) | effect of MG132 pre-treatment on ERα degradation (ERα [1]; 10 µM MG132 1 h, then compound 7 h) | effect of excess acetylated-(S,R,S)-AHPC pre-treatment on ERα degradation (ERα [1]; 10 µM VHL ligand) | % heavy (ERα heavy peptide) (ERα [2]; Time 0, MCF7) [%] | % heavy (ERα heavy peptide) (ERα [2]; Time 0.5) | % heavy (ERα heavy peptide) (ERα [2]; Time 1) | % heavy (ERα heavy peptide) (ERα [2]; Time 2) | % heavy (ERα heavy peptide) (ERα [2]; Time 4) | % heavy (ERα heavy peptide) (ERα [2]; Time 7) | % heavy (ERα heavy peptide) (ERα [2]; Time 24) | % heavy (ERα heavy peptide) (ERα [2]; Time 48) | ERa levels (% of vehicle control) (ERα [3]; Hypoxic) [%] | ERa levels (% of vehicle control) (ERα [3]; Normoxic) [%]
1 | C[C@@H]1Cc2c([nH]c3ccccc23)[C@@H](c2c(F)cc(/C=C/C(=O)O)cc2F)N1CC(C)(C)F [AZD9496, (E)-3-(3,5-Difluoro-4-((1R,3R)-2-(2-fluoro-2-methylpropyl)-3-methyl-2,3,4,9-tetra hydro-1H-pyrido[3,4-b]indol-1-yl)phenyl)acrylic Acid, reference compound] | 5.08% and 7% | induced PR expression | 178.44% and 156.17% and 157.43% and 195.46% and 128.27% | low columnar uterine epithelium |  |  |  |  |  |  |  |  |  |  |  | 
2 | C[C@]12CC[C@@H]3c4ccc(O)cc4C[C@@H](CCCCCCCCC[S+]([O-])CCCC(F)(F)C(F)(F)F)[C@H]3[C@@H]1CC[C@@H]2O (stereo partly shown) [fulvestrant, reference compound] |  |  |  |  | attenuated ERα degradation | had no effect | 100.0 | 39.1% and 49.6% and 42.4% | 29.7% and 37.1% and 33.5% | 20.8% and 29.3% and 28.1% | 10.9% and 15.5% and 18.5% | 5.3% and 6.8% and 7.7% | 4.3% and 6.1% | 4.6% and 6.1% and 3.9% | 5.829 | 10.860
